Test system: Acinetobacter baumannii strains
Assay: Antibiotic susceptibility test (CLSI disk diffusion test method, read per CLSI 2016); further: key: ‘S’ means susceptible; ‘I’ means intermediate; ‘R’ means resistant
Format: cell-based

Compound: C[C@@H](O)[C@H]1C(=O)N2C(C(=O)O)=C(S[C@@H]3CN[C@H](C(=O)N(C)C)C3)[C@H](C)[C@H]12 [Meropenem, meropenem]
- antibiotic susceptibility class (host strain YMC14/01/C29): R
- antibiotic susceptibility class (host strain YMC14/01/IP122): R
- antibiotic susceptibility class (host strain YMC14/01/L8): R
- antibiotic susceptibility class (host strain YMC14/01/P31): R
- antibiotic susceptibility class (host strain YMC14/01/P117): R
- antibiotic susceptibility class (host strain YMC14/01/P224): R
- antibiotic susceptibility class (host strain YMC14/01/P727): R
- antibiotic susceptibility class (host strain YMC14/01/P728): R
- antibiotic susceptibility class (host strain YMC14/01/R130): R
- antibiotic susceptibility class (host strain YMC14/01/R160): R
- antibiotic susceptibility class (host strain YMC14/01/R198): R
- antibiotic susceptibility class (host strain YMC14/01/R257): R
- antibiotic susceptibility class (host strain YMC14/01/R270): R
- antibiotic susceptibility class (host strain YMC14/01/R324): R
- antibiotic susceptibility class (host strain YMC14/01/R443): R
- antibiotic susceptibility class (host strain YMC14/01/R451): R
- antibiotic susceptibility class (host strain YMC14/01/R560): R
- antibiotic susceptibility class (host strain YMC14/01/R617): R
- antibiotic susceptibility class (host strain YMC14/01/R671): R
- antibiotic susceptibility class (host strain YMC14/01/R732): R
- antibiotic susceptibility class (host strain YMC14/01/R767): R
- antibiotic susceptibility class (host strain YMC14/01/R904): R
- antibiotic susceptibility class (host strain YMC14/01/R905): R
- antibiotic susceptibility class (host strain YMC14/01/R921): R
- antibiotic susceptibility class (host strain YMC14/01/R941): R
- antibiotic susceptibility class (host strain YMC14/01/R958): R
- antibiotic susceptibility class (host strain YMC14/01/R1006): R
- antibiotic susceptibility class (host strain YMC14/01/R1199): R
- antibiotic susceptibility class (host strain YMC14/01/R1659): R
- antibiotic susceptibility class (host strain YMC14/01/R1722): R
- antibiotic susceptibility class (host strain YMC14/01/R1752): R
- antibiotic susceptibility class (host strain YMC14/01/R2429): R
- antibiotic susceptibility class (host strain YMC14/01/R2572): R
- antibiotic susceptibility class (host strain YMC14/01/R2855): R
- antibiotic susceptibility class (host strain YMC14/01/R2945): R
- antibiotic susceptibility class (host strain YMC14/01/R3007): R
- antibiotic susceptibility class (host strain YMC14/01/R3129): R
- antibiotic susceptibility class (host strain YMC14/01/R3317): R
- antibiotic susceptibility class (host strain YMC14/01/R3474): R
- antibiotic susceptibility class (host strain YMC14/01/R3574): R
- antibiotic susceptibility class (host strain YMC14/01/U313): R
- antibiotic susceptibility class (host strain YMC14/01/U318): R
- antibiotic susceptibility class (host strain YMC14/02/L18): R
- antibiotic susceptibility class (host strain YMC14/02/P47): R
- antibiotic susceptibility class (host strain YMC14/02/R1860): R
- antibiotic susceptibility class (host strain YMC14/02/R2417): R
- antibiotic susceptibility class (host strain YMC14/02/R2599): R
- antibiotic susceptibility class (host strain YMC14/02/R2668): R
- antibiotic susceptibility class (host strain YMC14/02/R2758): R
- antibiotic susceptibility class (host strain YMC14/02/R2781): R
- antibiotic susceptibility class (host strain YMC14/02/R3106): R
- antibiotic susceptibility class (host strain YMC14/02/R3419): R
- antibiotic susceptibility class (host strain YMC14/02/U1607): R
- antibiotic susceptibility class (host strain YMC14/03/L9): R
- antibiotic susceptibility class (host strain YMC14/03/P471): R
- antibiotic susceptibility class (host strain YMC14/03/R122): R
- antibiotic susceptibility class (host strain YMC14/03/R217): R
- antibiotic susceptibility class (host strain YMC14/03/R380): R
- antibiotic susceptibility class (host strain YMC14/03/R618): R
- antibiotic susceptibility class (host strain YMC14/03/R2144): R
- antibiotic susceptibility class (host strain YMC14/03/U4616): R
- antibiotic susceptibility class (host strain YMC14/04/R1078): R
- antibiotic susceptibility class (host strain YMC14/04/R1080): R
- antibiotic susceptibility S/I/R (host strain YMC14/06/R2359): R
- susceptibility category (S/I/R) (host strain YMC14/06/R2359): R
- antibiotic susceptibility S/I/R (host strain YMC14/08/R1169): R
- susceptibility category (S/I/R) (host strain YMC14/08/R1169): R
- antibiotic susceptibility S/I/R (host strain YMC14/08/T90): R
- susceptibility category (S/I/R) (host strain YMC14/08/T90): R
- antibiotic susceptibility S/I/R (host strain YMC15/02/R436): R
- susceptibility category (S/I/R) (host strain YMC15/02/R436): R
- antibiotic susceptibility S/I/R (host strain YMC15/02/T28): R
- susceptibility category (S/I/R) (host strain YMC15/02/T28): R
- antibiotic susceptibility S/I/R (host strain YMC15/03/R1604): R
- susceptibility category (S/I/R) (host strain YMC15/03/R1604): R
- antibiotic susceptibility S/I/R (host strain YMC15/09/R1869): R
- susceptibility category (S/I/R) (host strain YMC15/09/R1869): R
- antibiotic susceptibility S/I/R (host strain YMC16/01/P11): R
- susceptibility category (S/I/R) (host strain YMC16/01/P11): R
- antibiotic susceptibility S/I/R (host strain YMC16/01/R123): R
- susceptibility category (S/I/R) (host strain YMC16/01/R123): R
- antibiotic susceptibility S/I/R (host strain YMC16/01/R198): R
- susceptibility category (S/I/R) (host strain YMC16/01/R198): R
- antibiotic susceptibility S/I/R (host strain YMC16/01/R353): R
- susceptibility category (S/I/R) (host strain YMC16/01/R353): R
- antibiotic susceptibility S/I/R (host strain YMC16/01/R380): R
- susceptibility category (S/I/R) (host strain YMC16/01/R380): R
- antibiotic susceptibility S/I/R (host strain YMC16/01/R397): R
- susceptibility category (S/I/R) (host strain YMC16/01/R397): R
- antibiotic susceptibility S/I/R (host strain YMC16/01/R405): R
- susceptibility category (S/I/R) (host strain YMC16/01/R405): R
- antibiotic susceptibility S/I/R (host strain YMC16/03/R4461): R
- susceptibility category (S/I/R) (host strain YMC16/03/R4461): R
- antibiotic susceptibility S/I/R (host strain YMC16/05/R2210): R
- susceptibility category (S/I/R) (host strain YMC16/05/R2210): R
- antibiotic susceptibility S/I/R (host strain YMC16/07/R2512): R
- susceptibility category (S/I/R) (host strain YMC16/07/R2512): R
- antibiotic susceptibility S/I/R (host strain YMC16/09/R2471): R
- susceptibility category (S/I/R) (host strain YMC16/09/R2471): R
- antibiotic susceptibility S/I/R (host strain YMC16/10/R2537): R
- susceptibility category (S/I/R) (host strain YMC16/10/R2537): R
- antibiotic susceptibility S/I/R (host strain YMC16/12/B11422): R
- susceptibility category (S/I/R) (host strain YMC16/12/B11422): R
- antibiotic susceptibility S/I/R (host strain YMC16/12/B11449): R
- susceptibility category (S/I/R) (host strain YMC16/12/B11449): R
- antibiotic susceptibility S/I/R (host strain YMC16/12/B13325): R
- susceptibility category (S/I/R) (host strain YMC16/12/B13325): R
- antibiotic susceptibility S/I/R (host strain YMC16/12/P503): R
- susceptibility category (S/I/R) (host strain YMC16/12/P503): R
- antibiotic susceptibility S/I/R (host strain YMC16/12/R4637): R
- susceptibility category (S/I/R) (host strain YMC16/12/R4637): R
- antibiotic susceptibility S/I/R (host strain YMC17/01/B8053): R
- susceptibility category (S/I/R) (host strain YMC17/01/B8053): R
- antibiotic susceptibility S/I/R (host strain YMC17/01/B10087): R
- susceptibility category (S/I/R) (host strain YMC17/01/B10087): R
- antibiotic susceptibility S/I/R (host strain YMC17/01/B12075): R
- susceptibility category (S/I/R) (host strain YMC17/01/B12075): R
- antibiotic susceptibility S/I/R (host strain YMC17/01/B13454): R
- susceptibility category (S/I/R) (host strain YMC17/01/B13454): R
- antibiotic susceptibility S/I/R (host strain YMC17/01/P518): R
- susceptibility category (S/I/R) (host strain YMC17/01/P518): R
- antibiotic susceptibility S/I/R (host strain YMC17/01/R2812): R
- susceptibility category (S/I/R) (host strain YMC17/01/R2812): R
- antibiotic susceptibility S/I/R (host strain YMC17/02/B14): R
- susceptibility category (S/I/R) (host strain YMC17/02/B14): R
- antibiotic susceptibility S/I/R (host strain YMC17/02/B87): R
- susceptibility category (S/I/R) (host strain YMC17/02/B87): R
- antibiotic susceptibility S/I/R (host strain YMC17/02/B721): R
- susceptibility category (S/I/R) (host strain YMC17/02/B721): R
- antibiotic susceptibility S/I/R (host strain YMC17/02/B4039): R
- susceptibility category (S/I/R) (host strain YMC17/02/B4039): R
- antibiotic susceptibility S/I/R (host strain YMC17/02/B4520): R
- susceptibility category (S/I/R) (host strain YMC17/02/B4520): R
- antibiotic susceptibility S/I/R (host strain YMC17/02/B4864): S
- susceptibility category (S/I/R) (host strain YMC17/02/B4864): S
- antibiotic susceptibility S/I/R (host strain YMC17/02/B8414): R
- susceptibility category (S/I/R) (host strain YMC17/02/B8414): R
- antibiotic susceptibility S/I/R (host strain YMC17/02/P523): R
- susceptibility category (S/I/R) (host strain YMC17/02/P523): R
- antibiotic susceptibility S/I/R (host strain YMC17/02/R541): R
- susceptibility category (S/I/R) (host strain YMC17/02/R541): R
- antibiotic susceptibility S/I/R (host strain YMC17/02/R2392): R
- susceptibility category (S/I/R) (host strain YMC17/02/R2392): R
- antibiotic susceptibility S/I/R (host strain YMC17/03/B4730): R
- susceptibility category (S/I/R) (host strain YMC17/03/B4730): R
- antibiotic susceptibility S/I/R (host strain YMC17/03/B5000): R
- susceptibility category (S/I/R) (host strain YMC17/03/B5000): R
- antibiotic susceptibility S/I/R (host strain YMC17/03/P971): R
- susceptibility category (S/I/R) (host strain YMC17/03/P971): R
- antibiotic susceptibility S/I/R (host strain YMC17/03/R348): R
- susceptibility category (S/I/R) (host strain YMC17/03/R348): R
- antibiotic susceptibility S/I/R (host strain YMC17/03/R585): R
- susceptibility category (S/I/R) (host strain YMC17/03/R585): R
- antibiotic susceptibility S/I/R (host strain YMC17/03/R1888): R
- susceptibility category (S/I/R) (host strain YMC17/03/R1888): R
- antibiotic susceptibility S/I/R (host strain YMC17/03/R3279): R
- susceptibility category (S/I/R) (host strain YMC17/03/R3279): R
- antibiotic susceptibility S/I/R (host strain YMC17/03/R4077): R
- susceptibility category (S/I/R) (host strain YMC17/03/R4077): R
- antibiotic susceptibility S/I/R (host strain YMC17/03/R4607): R
- susceptibility category (S/I/R) (host strain YMC17/03/R4607): R
- antibiotic susceptibility S/I/R (host strain YMC17/04/R488): R
- susceptibility category (S/I/R) (host strain YMC17/04/R488): R
- antibiotic susceptibility S/I/R (host strain YMC17/04/R640): R
- susceptibility category (S/I/R) (host strain YMC17/04/R640): R
- antibiotic susceptibility S/I/R (host strain YMC/17/05/R1095): R
- susceptibility category (S/I/R) (host strain YMC/17/05/R1095): R

Source: patent US20240000872A1, “NOVEL BACTERIOPHAGE THAT LYSES ACINETOBACTER GENUS BACTERIA HAVING RESISTANCE TO ANTIBIOTICS” (priority 2020, published 2024)
